# Assay results taken from patent US9926375B2, “Anti-endoglin antibodies and uses thereof” (Tracon Pharmaceuticals, Inc., priority 2014, dated 2018).
# T1: human endoglin (Homo sapiens, UniProt P17813)
# T1 sequence (P17813 26-658): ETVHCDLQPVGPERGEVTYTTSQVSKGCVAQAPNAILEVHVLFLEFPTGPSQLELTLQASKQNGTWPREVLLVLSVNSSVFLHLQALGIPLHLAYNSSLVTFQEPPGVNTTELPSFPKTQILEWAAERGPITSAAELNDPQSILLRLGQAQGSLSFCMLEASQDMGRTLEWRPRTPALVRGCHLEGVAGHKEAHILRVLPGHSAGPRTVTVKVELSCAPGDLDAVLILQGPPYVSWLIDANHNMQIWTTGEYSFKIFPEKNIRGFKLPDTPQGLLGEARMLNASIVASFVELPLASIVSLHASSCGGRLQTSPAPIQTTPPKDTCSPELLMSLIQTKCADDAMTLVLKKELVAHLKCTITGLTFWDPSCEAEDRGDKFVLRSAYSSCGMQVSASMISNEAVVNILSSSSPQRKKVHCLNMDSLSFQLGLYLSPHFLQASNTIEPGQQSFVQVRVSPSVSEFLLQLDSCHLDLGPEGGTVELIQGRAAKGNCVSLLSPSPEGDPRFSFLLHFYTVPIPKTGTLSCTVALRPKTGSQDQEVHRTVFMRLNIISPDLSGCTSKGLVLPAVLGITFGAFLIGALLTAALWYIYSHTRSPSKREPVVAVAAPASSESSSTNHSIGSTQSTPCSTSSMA
# How the values were obtained:
# NASH mice = test: Murine model of non-alcoholic steatohepatitis (NASH; STZ and high fat diet); format: in vivo, mouse
# Text: The purpose of this study was to examine the protective effects of endoglin antibodies on a murine model of NASH.
# NASH was established by a single subcutaneous injection of STZ (Sigma, USA) after birth and feeding with a high fat diet (HFD; CLEA Japan, Japan) ad libitum after 4 weeks of age (day 28±2).
# Randomization of mice into 6 groups of 10 mice was done at 9 weeks of age (day 63±2), the day before the start of treatment.
# Group 3 (Positive control; Temlisartan Group): Ten NASH mice were be orally administered pure water supplemented with telmisartan at a dose of 10 mg/kg once daily from day 63 to 84.
# Group 4 (Antibody M1043: M1043 Group): Ten NASH mice were intravenously administered vehicle supplemented with Antibody M1043 at a dose of 10 mg/kg twice weekly at day 63, 66, 70, 73, 77 and 80.
# Group 5 (Antibody TRC105; TRC105 Group): Ten NASH mice were intravenously administered vehicle supplemented with Antibody TRC105 at a dose of 10 mg/kg twice weekly at day 63, 66, 70, 73, 77 and 80.
# Group 6 (Antibody TRC205; TRC205 Group): Ten NASH mice were intravenously administered vehicle supplemented with Antibody TRC205 at a dose of 10 mg/kg twice weekly at days 63, 66, 70, 73, 77 and 80.
# Mice in all groups were terminated for the following assays at 12 weeks of age.
# H&E staining of liver tissue was conducted to estimate NAFLD Activity score.
# Total NAS score represents the sum of scores for steatosis, lobular inflammation, and ballooning, and ranges from 0-8. Diagnosis of NASH (or, alternatively, fatty liver not diagnostic of NASH) should be made first, then NAS is used to grade activity. In the reference study, NAS scores of 0-2 occurred in cases largely considered not diagnostic of NASH, scores of 3-4 were evenly divided among those considered not diagnostic, borderline, or positive for NASH. Scores of 5-8 occurred in cases that were largely considered diagnostic of NASH.
# Statistical tests were performed using Bonferroni Multiple Comparison Test. P values<0.05 were considered statistically significant.
# [1] = tested on: peripheral blood mononuclear cells (PBMCs); test: EpiScreen time course T cell proliferation assay with intact anti-endoglin antibodies; format: cell-based, human
# Text: This example describes a method of screening anti-endoglin antibodies for T-cell epitopes. The interaction between MHC, polypeptide and T cell receptor (TCR) provides the structural basis for the antigen specificity of T cell recognition. T cell proliferation assays test the binding of polypeptides processed from antibodies to MHC and the recognition of MHC/polypeptide complexes by the TCR. In vitro T cell proliferation assays of the present example, involve the stimulation of peripheral blood mononuclear cells (PBMCs), containing antigen presenting cells (APCs) and T cells. Stimulation is conducted in vitro using intact anti-endoglin antibodies. Stimulated T cell proliferation is measured using ^3H-thymidine (^3H-Thy) and the presence of incorporated ^3H-Thymidine is assessed using scintillation counting of washed fixed cells.
# Anti-endoglin antibodies were purified from the supernatants of mammalian cultures by protein A chromatography. Buffer exchange and protein concentration was done using PBS pH=7.4. Anti-endoglin antibody was further purified by size exclusion chromatography using a Sephacryl S200 column (GE Healthcare, AMersham, UK). The major peak is collected, filter sterilized and shown to have endotoxin levels <5 EU/mg using an Endosafe-PTS (Charles River, Margate, UK). The purified antibodies are stored at 4 degrees Celsius. Final concentrations were determined by UV absorption using calculated molar extinction coefficients, where A280 1.0=1.62 mg/mL. Each antibody was then diluted to 100 μg/mL in AIMV culture medium.
# Peripheral Blood Mononuclear cells (PBMC) are isolated from healthy community donor buffy coats (from blood drawn within 24 hours) which are obtained from the UK National Blood Transfusion Service (Addenbrooke's Hospital, Cambridge, UK) according to approval granted by Addenbrooke's Hospital Local Research Ethics Committee. PBMC are isolated from buffy coats by Lymphoprep (Axis-shield, Dundee, Scotland) density centrifugation and CD8+ T cells are depleted using CD8+ RossetteSep™ (StemCell Technologies, Inc.). Donors are characterized by identifying HLA-DR haplotypes using a Biotest HLA SSP-PCR based tissue-typing kit (Biotest, Landsteinerstralβe, […]). T cell responses to a control antigen, Keyhole Limpet Haemocyanin (KLH) (Pierce, Rockford, Ill., USA) are determined for a positive control. PBMC were then frozen and stored in liquid nitrogen until required. When required for use, cells are thawed rapidly in a water bath at 37° C. before transferring to 10 ml pre-warmed AIM V medium.
# A cohort of 20 donors is selected to best represent the number and frequency of HLA-DR allotypes expressed in the world population. […]
# PBMCs from each donor are thawed, counted and viability assessed. […]
# human endoglin = molecular target: T1, human endoglin; test: BIAcore (surface plasmon resonance) analysis of anti-endoglin antibody binding; settings: antibody captured on protein A chip, 25 degrees Celsius
# Procedure: Affinity of antibodies can be assessed using, for example, BIAcore analysis using standard protocols. Briefly, protein A is chemically coupled to a BIAcore CM5 chip, with the amount of protein A immobilized corresponding to 2000 RU. Subsequent steps are performed in a running buffer of 10 mM HEPES, 150 mM NaCl, 3 mM EDTA, 0.05% TWEEN, pH=7.4, at 25 degrees Celsius using a 10 Hz data collection rate. Anti-endoglin antibody (10 nM) is captured at a 10 μL/min flow rate by the immobilized protein A on the BIAcore chip: typically, capture times of 20, 40 and 80 seconds allow the capture of antibody densities corresponding to 130 RU, 330 RU and 570 RU, respectively. Start-up cycles are performed using running buffer at a flow rate of 40 μL/min, a contact time of 90 seconds and a dissociation time of 90 seconds. Sample cycles are performed using recombinant endoglin at concentrations ranging from 0 to 40 nM. Endoglin is passed over the BIAcore chip containing captured antibody at a flow rate of 40 μL/min with a contact time of 525 seconds and dissociation time of 2500 seconds. Eight sample cycles are typically performed at each antibody capture density. Regeneration of the chip is accomplished using 10 mM glycine pH=1.7. Data analysis is performed using BIAcore T100 Evaluation Software v1.1 Signals generated using BIAcore chips with different captured antibody densities are compared and data generated in the absence of recombinant endoglin are used to adjust for the intraassay blank signal. For fitting of the data, the Rmax is allowed to float to account for variation in capture levels of each antibody in each cycle. Data from each capture density is fitted simultaneously during analysis of each antibody. BIAcore data are presented in Table 2 for chimeric, humanized and deimmunized anti-endoglin antibodies, including ka (1/Ms), kd (1/s), KD (M) and Chi^2 (RU^2).
# [2] = liver gene expression, mean ± SD, Normal-Vehicle 1.0
molecule,measurement,setting,value
"CCCc1nc2c(C)cc(-c3nc4ccccc4n3C)cc2n1Cc1ccc(-c2ccccc2C(=O)O)cc1 [Telmisartan, telmisartan, reference compound]",Alpha-smooth muscle actin mRNA expression levels compared with the NASH-Vehicle group,"NASH mice; Bonferroni, P<0.05",significantly down-regulated
same,Liver triglyceride contents compared with the NASH-Vehicle group,"NASH mice; Bonferroni, P<0.05",significant decreases
same,Macrophage chemoattractant protein-1 mRNA expression levels compared with the NASH-Vehicle group,"NASH mice; Bonferroni, P<0.05",tended to decrease
same,Mean liver weight compared with the NASH-Vehicle group,"NASH mice; Bonferroni, P<0.05",significant decrease
same,Mean liver-to-body weight ratio compared with the NASH-Vehicle group,"NASH mice; Bonferroni, P<0.05",significant decreases
same,NAS compared with the NASH-Vehicle group,"NASH mice; Bonferroni, P<0.05",significant decreases in NAS
same,Serum alanine aminotransferase (ALT) levels compared with the NASH-Vehicle group,"NASH mice; Bonferroni, P<0.05",tended to decrease
same,Sirius red-positive area compared with the NASH-Vehicle group,"NASH mice; Bonferroni, P<0.05",significant decrease
same,F4/80-positive signals and cells in liver compared with the NASH-Vehicle group,"NASH mice; F4/80 immunostaining, macrophage marker",No obvious changes
same,Alpha-SMA mRNA expression,NASH mice; [2],0.7 ± 0.3
same,MCP-1 mRNA expression,NASH mice; [2],1.5 ± 1.1
same,TIMP-1 mRNA expression,NASH mice; [2],5.8 ± 3.7
same,TNF-α mRNA expression,NASH mice; [2],3.2 ± 2.3
same,Liver triglyceride,NASH mice; mean ± SD,23.5 ± 10.6 mg/g liver
same,Serum ALP,NASH mice; mean ± SD,444 ± 134 U/L
same,Serum ALT,NASH mice; mean ± SD,29 ± 15 U/L
same,Serum AST,NASH mice; mean ± SD,113 ± 32 U/L
same,Sirius red-positive area,"NASH mice; mean ± SD, liver sections",0.67 ± 0.12%
same,NAS (NAFLD Activity score),"NASH mice; mean ± SD, range 0-8, 10 mg/kg",3.3 ± 1.2
same,"Lobular inflammation score 0, number of mice",NASH mice; score 0 = No Foci,3
same,"Hepatocyte ballooning score 0, number of mice",NASH mice; score 0 = None,1
same,"Steatosis score 1, number of mice",NASH mice; score 1 = 5-33%,9
same,"Lobular inflammation score 1, number of mice",NASH mice; score 1 = <2 foci/200x,4
same,"Hepatocyte ballooning score 1, number of mice",NASH mice; score 1 = Few balloon cells,3
same,"Lobular inflammation score 2, number of mice",NASH mice; score 2 = 2-4 foci/200x,2
same,"Hepatocyte ballooning score 2, number of mice",NASH mice; score 2 = Many cells/prominent ballooning,5
"VK1VH1: humanized anti-endoglin antibody (antibody, V domains shown) VH: EVQLVESGGGLVKPGGSLRLSCAASGFTFSDAWMDWVRQAPGKGLEWVGEIRSKASNHATYYAESVKGRFTISRDDSKNTLYLQMNSLKTEDTAVYYCTRWRRFFDSWGQGTLVTVSS VL: DIQMTQSPSSLSASVGDRVTITCRASSSVSYMHWYQQKPGKAPKPWIYATSNLASGVPSRFSGSGSGTDYTLTISSLQPEDFATYYCQQWSSNPLTFGGGTKVEIK","Responding donors, % of the study cohort","[1]; cohort of 20 donors, 50 μg/mL antibody",10%
same,Stimulation index (borderline response),[1]; donor 20,1.91
same,Donors with positive T cell proliferation responses,"[1]; of 20 donors, 50 μg/mL antibody, SI≥2 (borderline ≥1.90), p<0.05",2
"VK1AAVH1R: humanized/deimmunized anti-endoglin antibody (antibody, V domains shown) VH: EVQLVESGGGLVKPGGSLRLSCAASGFTFSDAWMDWVRQAPGKGLEWVGEIRSRASNHATYYAESVKGRFTISRDDSKNTLYLQMNSLKTEDTAVYYCTRWRRFFDSWGQGTLVTVSS VL: DIQMTQSPSSLSASVGDRATITCRASSSVSYMHWYQQKPGKAPKPWAYATSNLASGVPSRFSGSGSGTDYTLTISSLQPEDFATYYCQQWSSNPLTFGGGTKVEIK",ka,human endoglin,64000 M⁻¹ s⁻¹
same,kd,human endoglin,3.41e-05 s⁻¹
"VK1AAVH1Q: humanized/deimmunized anti-endoglin antibody (antibody, V domains shown) VH: EVQLVESGGGLVKPGGSLRLSCAASGFTFSDAWMDWVRQAPGKGLEWVGEIRSQASNHATYYAESVKGRFTISRDDSKNTLYLQMNSLKTEDTAVYYCTRWRRFFDSWGQGTLVTVSS VL: DIQMTQSPSSLSASVGDRATITCRASSSVSYMHWYQQKPGKAPKPWAYATSNLASGVPSRFSGSGSGTDYTLTISSLQPEDFATYYCQQWSSNPLTFGGGTKVEIK",ka,human endoglin,35600 M⁻¹ s⁻¹
same,kd,human endoglin,3.03e-05 s⁻¹
